Laboratory results as given in patent US20100129434A1, “COMPOSITIONS AND METHODS FOR THE TREATMENT OF MUCORMYCOSIS AND OTHER FUNGAL DISEASES” (priority 2006, published 2010).
Converted amounts (≈) assume the structure as drawn. Like-named read-outs stand apart in the source and are kept apart here.

Columns and labels:
Mucorales = assay: Deferasirox susceptibilities of multiple clinical isolates of Mucorales (summary); type: cell-based
Protocol: Minimum inhibitory concentration (MIC) and minimum fungicidal concentration (MFC) were determined for deferasirox by the method of Espinel-Ingroff using R. oryzae spores starved for iron (Espinel-Ingroff, (2001), supra). Cidality was defined as a <4-fold difference between MIC and MFC.
We next determined the deferasirox susceptibilities of multiple clinical isolates of Mucorales (Table 3). The MIC9OS of deferasirox against Mucor, non-oryzae Rhizopus spp., and R. oryzae were 3.12 to 6.25 μg/ml. MFCs were similar to MICs, and deferasirox was cidal for 28/29 (97%) of isolates. Of note, slight growth was seen within the first twelve hours even at extremely high concentrations of deferasirox. […] Furthermore, the MICs and MFCs of deferasirox against these isolates were well below clinically achievable peak (˜38 μg/ml) and trough serum levels (˜17 μg/ml) of the drug at steady state when administered at the FDA-approved starting dose (20 mg/kg/d).

R. oryzae 99-892 = assay: Kidney histopathology of DKA mice infected with R. oryzae; type: in vivo; details: 10 mg/kg bid
Protocol: For in vivo infection, BALB/c male mice (>20 g) were rendered diabetic with a single i.p. injection of 210 mg/kg streptozotocin in 0.2 ml citrate buffer 10 days prior to fungal challenge. Glycosuria and ketonuria were confirmed in all mice 7 days after streptozotocin treatment. For neutropenic mouse model, mice were injected with a single i.p. dose of 200 mg/kg cyclolphosphamide (Bristol Myer Squibb) 2 days prior to infection with R. oryzae. […] Mice were infected through the tail vein with the appropriate inocula of R. oryzae. To confirm the inocula, dilutions were streaked on PDA plates containing 0.1% triton and colonies were counted following a 24 h incubation period at 37° C. The primary efficacy endpoint was time to death. As a secondary endpoint, brain fungal burden (the primary target organ) was determined by homogenization by rolling a pipette on organs placed in Whirl-Pak™ bags (Nasco®, Fort Atkinson, Wis.) containing 1 ml saline. The homogenate was serially diluted in 0.85% saline and then quantitatively cultured on PDA. Values were expressed as log10 cfu g−1 tissue. […]
To determine the impact of deferasirox on tissue fungal burden, diabetic ketoacidotic mice were infected via the tail-vein with 4.2×10^4 spores of R. oryzae 99-892. […] Kidneys and brains were removed on day four, homogenized, and quantitatively cultured.

[1] = system: rhinocerebral mucormycosis; assay: Salvage therapy of a patient with rhinocerebral mucormycosis (case); type: in vivo, human; details: one patient
Protocol: A person with diabetic ketoacidosis presented to the emergency department of an outside hospital with polyuria, polydipsia, left retrobulbar pain, and a left cranial nerve (CN) VI palsy. […] The patient progressed to complete left opthalmoplegia in the first 24 hours. Rhinocerebral mucormycosis was suspected, and they were started on amphotericin B lipid complex (ABLC) at 5 mg/kg/day, along with empiric antibacterial agents, for treatment of sinusitis. On hospital day 2 they underwent endoscopic sphenooethmoid exploration. […] Bacterial culture grew only rare Enterobacter aerogenes.
Over the next twelve days, the patient developed blindness and worsening proptosis in the left eye. He was continued on ABLC and no further surgery was performed.
The patient was transferred to our institution for further management on hospital day 14. Immediately upon arrival, he underwent left orbital exenteration with enucleation and extensive sinus debridement and resection. Intraoperative findings included an ischemic globe with extensive surrounding necrosis of the extraocular muscles.
Antifungal therapy was continued. […] Given the location of the lesion at the superficial aspect of the pons, a dose of intracisternal amphotericin was administered, but the patient refused further doses. The patient remained clinically and neurologically unchanged. […]

[2] = Deferasirox toxicity studies in neutropenic mice; type: in vivo; details: uninfected neutropenic mice
Protocol: Toxicity of deferasirox in neutropenic mice was evaluated. Mice were rendered neutropenic as above and treated with deferasirox at 10 mg/kg twice every day or every other day for 7 days. Mice from three different groups (i.e. placebo, deferasirox daily treatment, and deferasirox every other day treatment) were sacrificed on day 3 or 8 and blood was collected and sent for Charles River Laboratories for evaluation. Additionally, bone marrow smears were prepared from femurs, and tissues were collected, preserved in zinc-buffered formalin, embedded in paraffin, sectioned at 5 μm, and stained with hematoxylin and eosin. The resulting slides were examined by a board-certified veterinary pathologist at Charles River Laboratories.
Because deferasirox dosing every other day was optimal in the neutropenic model, we sought to identify any potential toxicity caused by daily dosing of deferasirox in neutropenic mice. Mice were made neutropenic with cyclophosphamide as above, but were not infected. The mice were treated with deferasirox 10 mg/kg twice daily for seven days, 10 mg/kg twice every other day for 4 doses, or placebo. Terminal bleeds were performed on day 3 or day 8 to measure complete blood count, serum chemistries, and liver function tests. […]

[3] = cited from earlier work
[4] = iron overloaded patients, cited from earlier work
[5] = steady state; FDA-approved starting dose 20 mg/kg/d; cited from earlier work

With O=C(O)c1ccc(-n2nc(-c3ccccc3O)nc2-c2ccccc2O)cc1 [Deferasirox, 4-[3,5-Bis(2-hydroxyphenyl)-1H-1,2,4-triazol-1-yl]-benzoic acid] the “isolates for which deferasirox was cidal” value (Mucorales; 28/29 isolates) was 97%, the MIC (Mucorales; Rhizopus arrhizus, read-out: MIC90s against Mucor, non-oryzae Rhizopus spp., and R. oryzae) was 3.12 to 6.25 µg/mL (≈ 8.36 to 16.7 µM) and the dependence of cidality (Mucorales; slight growth within first twelve hours, fungi dead by 24 hours) was “time-dependent, rather than concentration-dependent”. For the same molecule, the “hyphae in kidneys by histopathology” value (R. oryzae 99-892) was “no visible hyphae”, the “neutrophil influx in the kidneys” value (R. oryzae 99-892) was “prominent” and the “repeat MRI of the brain” value ([1]; 1000 mg po daily seven days, LAmB continued, one week after treatment) was “resolution of the edema in the left cerebellar peduncle”. For the same molecule, the radiographic outcome ([1]; after 7 days of treatment) was “substantial radiographic improvement”, the “white cell, neutrophil, platelet counts, hemoglobin, serum chemistries, liver function tests versus placebo” value ([2]; 10 mg/kg twice daily 7 days or twice every other day 4 doses, day 3 or 8) was “No differences” and the “organ toxicity by histopathology” value ([2]; 10 mg/kg twice daily or twice every other day) was “no organ-specific toxicity attributable to deferasirox”. The toxicity ([3]; iron-overloaded marmosets, doses up to 400 mg/kg/d) was “virtually no toxicity”, the toxicity ([3]; non-iron overloaded marmosets, 39 weeks, up to 40 mg/kg/d) was “no toxicities” and the tolerability ([3]; non-iron overloaded marmosets, subacute treatment (4 weeks), up to 65 mg/kg/d) was “well tolerated with no adverse effects”. The toxicity ([3]; non-iron-overloaded marmosets, chronic administration, 80 mg/kg) was “severe toxicity”, the tolerability ([4]; chronic dosing over months to years, up to 30 mg/kg/d) was “very well tolerated” and the tolerability ([4]; up to 40 mg/kg/d for up to 12 days) was “very well tolerated”. For the same molecule, the “clinically achievable peak serum level” value [5] was about 38 µg/mL and the “clinically achievable trough serum level” value [5] was about 17 µg/mL.
